In one assay the test system is male Long-Evans rats. Description: Focal cerebral ischemia (right distal MCA cauterization with bilateral temporary CCA occlusion). Type of assay: in vivo. Conditions: for damaged volume (infarct volume): mean±SD. As to the method:
Focal cerebral ischemia is produced by cauterization of the right distal MCA (middle cerebral artery) with bilateral temporary common carotid artery occlusion in male Long-Evans rats for 90 minutes. All procedures performed on the animals are approved by the University Institutional Animal Care and Use Committee of the University of Pennsylvania. A total of 42 rats (weights: 230-340 g) obtained from Charles River were used in this study. The animals fasted overnight with free access to water prior to the surgical procedure.
Two hours prior to MCA occlusion, varying amounts (control, n=14; 5 mg/kg, n=7; 10 mg/kg, n=7; 20 mg/kg, n=7; and 40 mg/kg, n=7) of the compound, 3,4-dihydro-5-[4-(1-piperidinyl)-butoxy]-1(2H)-isoquinolinone (“DPQ”) were dissolved in dimethyl sulfoxide (DMSO) using a sonicator. A volume of 1.28 ml/kg of the resulting solution was injected intraperiotoneally into fourteen rats.
The rats were then anesthetized with halothane (4% for induction and 0.8%-[…] for the surgical procedure) in a mixture of 70% nitrous oxide and 30% oxygen. The body temperature was monitored by a rectal probe and maintained at 37.5±0.5° C. with a heating blanket regulated by a homethermic blanket control unit (Harvard Apparatus Limited, Kent, U.K.). A catheter (PE-50) was placed into the tail artery, and arterial pressure was continuously monitored and recorded on a Grass polygraph recorder (Model 7D, Grass Instruments, Quincy, Mass.). Samples for blood gas analysis (arterial pH, PaO2 and PaCO2) were also taken from the tail artery catheter and measured with a blood gas analyzer (ABL 30, Radiometer, Copenhagen, Denmark). Arterial blood samples were obtained 30 minutes after MCA occlusion.
The head of the animal was positioned in a stereotaxic frame, and a right parietal incision between the right lateral canthus and the external auditory meatus was made. Using a dental drill constantly cooled with saline, a 3 mm burr hole was prepared over the cortex supplied by the right MCA. 4 mm lateral to the sagittal suture and 5 mm caudal to the coronal suture. The dura mater and a thin inner bone layer were kept, care being taken to position the probe over a tissue area devoid of large blood vessels. The flow probe (tip diameter of 1 mm, fiber separation of 0.25 mm) was lowered to the bottom of the cranial burr hole using a micromanipulator. The probe was held stationary by a probe holder secured to the skull with dental cement. The microvascular blood flow in the right parietal cortex was continuously monitored with a laser Doppler flowmeter (FloLab, Moor, Devon, U.K., and Periflux 4001, Perimed, Stockholm, Sweden).
Focal cerebral ischemia was produced by cauterization of the distal portion of the right MCA with bilateral temporary common caroud artery (CCA) occlusion by the procedure of Chen et al., “A Model of Focal Ischemic Stroke in the Rat: Reproducible Extensive Cortical Infarction”, Stroke 17:738-43 (1986) and/or Liu et al., “Polyethylene Glycol-conjugated Superoxide Dismutase and Catalase Reduce Ischemic Brain Injury”, Am. J. Physiol. 256:H589-93 (1989), both of which are hereby incorporated by reference.
Specifically, bilateral CCA's were isolated, and loops made from polyethylene (PE-10) catheter were carefully passed around the CCA's for later remote occlusion. […]

For the next assay, the target named is PARP (Homo sapiens, UniProt P09874). Conditions: read-out: IC50 for inhibiting PARP; reported by Suto et al.; cited from earlier work.
Chain of PARP (P09874 whole entry): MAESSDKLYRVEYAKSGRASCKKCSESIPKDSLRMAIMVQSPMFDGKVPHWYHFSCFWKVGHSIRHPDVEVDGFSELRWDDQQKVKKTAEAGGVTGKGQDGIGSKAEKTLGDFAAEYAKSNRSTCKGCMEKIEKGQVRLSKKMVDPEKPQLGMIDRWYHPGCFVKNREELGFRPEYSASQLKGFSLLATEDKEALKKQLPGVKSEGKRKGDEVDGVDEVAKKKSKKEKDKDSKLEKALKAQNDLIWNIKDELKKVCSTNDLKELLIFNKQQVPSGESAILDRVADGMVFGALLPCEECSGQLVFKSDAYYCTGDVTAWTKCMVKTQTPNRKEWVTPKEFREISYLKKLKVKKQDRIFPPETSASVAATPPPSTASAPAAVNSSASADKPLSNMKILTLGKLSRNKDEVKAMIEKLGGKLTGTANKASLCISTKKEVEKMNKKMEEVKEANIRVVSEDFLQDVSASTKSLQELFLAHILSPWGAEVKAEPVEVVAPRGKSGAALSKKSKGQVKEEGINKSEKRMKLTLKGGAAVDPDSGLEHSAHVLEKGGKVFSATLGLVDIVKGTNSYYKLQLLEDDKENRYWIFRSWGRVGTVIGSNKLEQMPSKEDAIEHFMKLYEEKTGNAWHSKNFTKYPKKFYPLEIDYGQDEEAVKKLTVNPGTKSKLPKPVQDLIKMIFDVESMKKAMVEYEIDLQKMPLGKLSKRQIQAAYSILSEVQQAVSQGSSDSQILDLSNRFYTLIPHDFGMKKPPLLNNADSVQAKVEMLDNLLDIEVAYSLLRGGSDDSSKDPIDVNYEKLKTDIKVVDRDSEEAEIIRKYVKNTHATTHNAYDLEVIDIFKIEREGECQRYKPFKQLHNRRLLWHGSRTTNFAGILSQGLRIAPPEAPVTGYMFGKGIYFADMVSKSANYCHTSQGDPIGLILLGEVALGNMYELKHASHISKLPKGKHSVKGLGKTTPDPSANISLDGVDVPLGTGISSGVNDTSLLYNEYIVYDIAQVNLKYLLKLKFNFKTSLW

pIC50: −log10 of the molar value.

`O=C1NCCc2c(OCCCCN3CCCCC3)cccc21` [DPQ, 3,4-dihydro-5-[4-(1-piperidinyl)-butoxy]-1(2H)-isoquinolinone]: the “damaged volume (infarct volume)” value is recorded as 106.7±23.2 mm^3 with male Long-Evans rats (5 mg/kg i.p. 2 h before and 2 h after MCA occlusion, p<0.001 vs control); 76.4±16.8 mm^3 with male Long-Evans rats (10 mg/kg i.p. 2 h before and 2 h after MCA occlusion, p<0.001 vs control); 110.2±42.0 mm^3 with male Long-Evans rats (20 mg/kg i.p. 2 h before and 2 h after MCA occlusion, p<0.01 vs control); 135.6±44.8 mm^3 in the assay with male Long-Evans rats (40 mg/kg i.p. 2 h before and 2 h after MCA occlusion, not significant vs control). Moreover, the “infarct volume, overall effect of in vivo administration” value with male Long-Evans rats (focal cerebral ischemia model in the rat) is on record as “substantial reduction in infarct volume”. Also, at PARP, the pIC50 is 8.00.
